IC95, C/I and IC50 data for 9 compounds are collected here from ChEMBL document CHEMBL1136787, “Design, synthesis, and biological evaluation of monopyrrolinone-based HIV-1 protease inhibitors” (J Med Chem, 2003).

Each structure is given as a SMILES string.

Assay [1] concerns Human immunodeficiency virus 1. As to the kind of experiment: Anti-viral activity was determined. The class given is functional. The following applies: read-out: CIC95.
Assay [2] can be described thus: Ratio (CIC95/IC50) of cellular antiviral activity over the isolated enzyme potency. Format: functional.
Assay [3] addresses T1, Human immunodeficiency virus type 1 protease (Human immunodeficiency virus 1, UniProt Q72874). Nature of the assay: Inhibitory activity against HIV-1 protease was determined.
In assay [4] the target is T1, Human immunodeficiency virus type 1 protease. Nature of the assay: Inhibitory activity against HIV-1 protease mutant was determined.

Regarding `O=C(N[C@@H](Cc1ccccc1)[C@@H](O)C[C@@H](Cc1ccccc1)C(=O)N[C@H]1c2ccccc2C[C@H]1O)OC1CCOC1` (stereo partly drawn), the IC95 in assay [1] amounted to 3 nM. For the same compound, the C/I in assay [2] came to 100.

As to `CC(C)(C)OC(=O)N[C@@H](Cc1ccccc1)[C@@H](O)C[C@@H](Cc1ccccc1)C(=O)N[C@H]1c2ccccc2C[C@H]1O`, in assay [1], the IC95 was found to be 400 nM. The C/I in assay [2] was 1333.

For `O=C(N[C@@H](Cc1ccccc1)[C@@H](O)C[C@]1(Cc2ccccc2)N=CC(C2CNC(=O)c3ccccc32)=C1O)O[C@H]1CCOC1` (single isomer, unassigned; (+)), in assay [1], the IC95 worked out at 781 nM. Besides, in assay [2], the C/I was 137.

Consider `CC(C)C[C@@]1(C2=C(O)[C@](Cc3ccccc3)(C[C@H](O)[C@H](Cc3ccccc3)NC(=O)OC(C)(C)C)N=C2)N=CC([C@@H](Cc2ccccc2)C(N)=O)=C1O`, for which the IC95 in assay [1] was 1500 nM. Besides, the 50% inhibitory concentration (IC50) in assay [3] came to 10 nM.

On to `CC(C)(C)NC(=O)[C@@H]1CN(Cc2cccnc2)CCN1C[C@@H](O)C[C@@H](Cc1ccccc1)C(=O)N[C@H]1c2ccccc2C[C@H]1O.O`, for which the IC95 in assay [1] came to 25 nM. Moreover, in assay [2], the C/I was 69.

`CC(C)C[C@@]1(C2=C(O)[C@](Cc3ccccc3)(C[C@H](O)[C@H](Cc3ccccc3)NC(=O)OC3CCOC3)N=C2)N=CC([C@@H](Cc2ccccc2)C(N)=O)=C1O` (single isomer, unassigned; (-)): the IC95 in assay [1] amounted to 800 nM. In assay [3], this compound gave an IC50 of 1.3 nM.

In the case of `O=C(N[C@@H](Cc1ccccc1)[C@@H](O)C[C@]1(Cc2ccccc2)N=CC(C2c3ccccc3C[C@H]2O)=C1O)O[C@H]1CCOC1` (single isomer, unassigned; (-)), in assay [1], the IC95 was 100 nM. For the same compound, the half-maximal inhibitory concentration (IC50) in assay [4] is 129 nM.

As for `NC(=O)O[C@@H]1Cc2ccccc2C1C1=C(O)[C@](Cc2ccccc2)(C[C@H](O)[C@H](Cc2ccccc2)NC(=O)O[C@H]2CCOC2)N=C1` (single isomer, unassigned; (-)), the IC95 in assay [1] stood at 250 nM. Inhibition in assay [4] was half-maximal at 364 nM (IC50). Moreover, in assay [2], the C/I amounted to 125.

In the case of `CC(C)(C)OC(=O)N[C@@H](Cc1ccccc1)[C@@H](O)C[C@]1(Cc2ccccc2)N=CC(C2c3ccccc3C[C@H]2O)=C1O` (single isomer, unassigned; (-)), the IC95 in assay [1] was 800 nM.
